Test results reported in US8012980B2, “Isoquinolinone derivatives” (AstraZeneca AB, priority 2008, dated 2011).

What follows are compounds tested against T1, human active recombinant p38 (p38α) (Homo sapiens, UniProt Q16539) (assay: p38 Alpha Enzyme Assay (AlphaScreen, biotinylated-ATF2 substrate)). Conditions: means of replicate determinations; pre-incubated for 4 hours at 37° C.; SD of assay between 0.2 and 0.3 log units.
T1 construct: 6His
T1 sequence (Q16539 whole entry): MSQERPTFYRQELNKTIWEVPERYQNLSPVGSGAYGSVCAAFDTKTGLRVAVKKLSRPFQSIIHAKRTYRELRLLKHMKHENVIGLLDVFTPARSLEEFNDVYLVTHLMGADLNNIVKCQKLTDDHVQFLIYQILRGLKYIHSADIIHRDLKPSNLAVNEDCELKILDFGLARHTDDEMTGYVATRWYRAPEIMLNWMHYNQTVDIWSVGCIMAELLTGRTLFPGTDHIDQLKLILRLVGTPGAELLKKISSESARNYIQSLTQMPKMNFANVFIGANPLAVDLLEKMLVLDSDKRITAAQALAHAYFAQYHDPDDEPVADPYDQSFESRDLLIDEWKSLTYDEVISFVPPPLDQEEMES
Assay type: biochemical
For “N-Cyclopropyl-3-fluoro-5-(2-[2-(hydroxymethyl)-2-methylbutyl]-4-{[(3S)-3-methylpiperazin-1-yl]methyl}-1-oxo-1,2-dihydroisoquinolin-6-yl)-4-methylbenzamide [Example 37]”, the “p38α inhibition Mean pIC50” value was 9.5.

Same assay, conditions: means of replicate determinations; pre-incubated for 4 hours at 37° C.; SD of assay between 0.2 and 0.3 log units; read-out: p38α inhibition Mean pIC50 (converted)
With `Cc1c(F)cc(C(=O)NC2CC2)cc1-c1ccc2c(=O)n(CC(C)(C)CO)cc(CN3CCNC[C@H]3C)c2c1` [Example 26, N-Cyclopropyl-3-fluoro-5-[2-(3-hydroxy-2,2-dimethylpropyl)-4-{[(2R)-2-methylpiperazin-1-yl]methyl}-1-oxo-1,2-dihydroisoquinolin-6-yl]-4-methylbenzamide] the IC50 was 0.251 nM. `Cc1c(F)cc(C(=O)NC2CC2)cc1-c1ccc2c(=O)n(CC(C)(C)CO)cc(S(=O)(=O)NCCN(C)C)c2c1` [Example 56, N-cyclopropyl-3-[4-{[2-(dimethylamino)ethyl]sulfamoyl}-2-(3-hydroxy-2,2-dimethylpropyl)-1-oxo-1,2-dihydroisoquinolin-6-yl]-5-fluoro-4-methylbenzamide] showed an IC50 of 0.794 nM. In the case of `Cc1c(F)cc(C(=O)NC2CC2)cc1-c1ccc2c(=O)n(CC3(CO)CC3)cc(S(=O)(=O)N3CCCNCC3)c2c1` [Example 57], the IC50 is reported as 0.158 nM. In the case of `Cc1c(F)cc(C(=O)NC2CC2)cc1-c1ccc2c(=O)n(CC(C)(C)CO)cc(SC3CCNCC3)c2c1` [Example 58, N-Cyclopropyl-3-fluoro-5-[2-(3-hydroxy-2,2-dimethylpropyl)-1-oxo-4-(piperidin-4-ylsulfanyl)-1,2-dihydroisoquinolin-6-yl]-4-methylbenzamide], the IC50 is reported as 0.316 nM. Work on `Cc1c(F)cc(C(=O)NC2CC2)cc1-c1ccc2c(=O)n(CC(C)(C)CO)cc([S+]([O-])C3CCNCC3)c2c1` (stereo not shown) [Example 59, N-Cyclopropyl-3-fluoro-5-[2-(3-hydroxy-2,2-dimethylpropyl)-1-oxo-4-(piperidin-4-ylsulfinyl)-1,2-dihydroisoquinolin-6-yl]-4-methylbenzamide] yielded an IC50 of 0.501 nM. `Cc1c(F)cc(C(=O)NC2CC2)cc1-c1ccc2c(=O)n(CC(C)(C)CO)cc(S(=O)(=O)C3CCNCC3)c2c1` [Example 60, N-Cyclopropyl-3-fluoro-5-[2-(3-hydroxy-2,2-dimethylpropyl)-1-oxo-4-(piperidin-4-ylsulfonyl)-1,2-dihydroisoquinolin-6-yl]-4-methylbenzamide] showed an IC50 of 0.398 nM. For `Cc1c(F)cc(C(=O)NC2CC2)cc1-c1ccc2c(=O)n(CC3CC3)cc(SC3CCNCC3)c2c1` [Example 61, N-Cyclopropyl-3-[2-(cyclopropylmethyl)-1-oxo-4-(piperidin-4-ylsulfanyl)-1,2-dihydroisoquinolin-6-yl]-5-fluoro-4-methylbenzamide], the IC50 was 0.1 nM. `Cc1c(F)cc(C(=O)NC2CC2)cc1-c1ccc2c(=O)n(CC3CC3)cc(S(=O)(=O)C3CCNCC3)c2c1` [Example 62, N-Cyclopropyl-3-[2-(cyclopropylmethyl)-1-oxo-4-(piperidin-4-ylsulfonyl)-1,2-dihydroisoquinolin-6-yl]-5-fluoro-4-methylbenzamide] gave an IC50 of 0.2 nM. `Cc1c(F)cc(C(=O)NC2CC2)cc1-c1ccc2c(=O)n(CC3(CO)CC3)cc(SC[C@@H]3CCCNC3)c2c1` [Example 63] gave an IC50 of 0.398 nM. `Cc1c(F)cc(C(=O)NC2CC2)cc1-c1ccc2c(=O)n(CC3(CO)CC3)cc(SC3CCNCC3)c2c1` [Example 64, N-Cyclopropyl-3-fluoro-5-[2-{[1-(hydroxymethyl)cyclopropyl]methyl}-1-oxo-4-(piperidin-4-ylsulfanyl)-1,2-dihydroisoquinolin-6-yl]-4-methylbenzamide] showed an IC50 of 0.1 nM. Work on `Cc1c(F)cc(C(=O)NC2CC2)cc1-c1ccc2c(=O)n(CC(C)(C)CO)cc(S[C@@H]3CCNC3)c2c1` [Example 65, N-Cyclopropyl-3-fluoro-5-{2-(3-hydroxy-2,2-dimethylpropyl)-1-oxo-4-[(3R)-pyrrolidin-3-ylsulfanyl]-1,2-dihydroisoquinolin-6-yl}-4-methylbenzamide] yielded an IC50 of under 0.0631 nM. With `Cc1c(F)cc(C(=O)NC2CC2)cc1-c1ccc2c(=O)n(CC(C)(CO)CO)cc(SC3CCNCC3)c2c1` [Example 66, N-Cyclopropyl-3-fluoro-5-{2-[3-hydroxy-2-(hydroxymethyl)-2-methylpropyl]-1-oxo-4-(piperidin-4-ylsulfanyl)-1,2-dihydroisoquinolin-6-yl}-4-methylbenzamide] the IC50 was 0.2 nM. Compound `Cc1c(F)cc(C(=O)NC2CC2)cc1-c1ccc2c(=O)n(CC(C)(C)CO)cc(S[C@H]3CCN[C@H](CO)C3)c2c1` [Example 67, N-Cyclopropyl-3-fluoro-5-[2-(3-hydroxy-2,2-dimethylpropyl)-4-{[(2S,4S)-2-(hydroxymethyl)piperidin-4-yl]sulfanyl}-1-oxo-1,2-dihydroisoquinolin-6-yl]-4-methylbenzamide] has an IC50 of 0.251 nM.

What follows are compounds tested on mouse lymphoma L5178Y cells (assay: In Vitro Micronucleus Assay (genotoxicity)). Conditions: 3 hours exposure in the presence or absence of S9 mix, up to 1 mmol/L or solubility limit.
Assay type: cell-based
Excerpt: In Vitro Micronucleus Assay
The following is a description of an assay that may be used to assess the genotoxicity of a compound using mouse lymphoma […] cells.
The in vitro micronucleus assay (IVM) detects chemicals that induce chromosomal damage by measuring the formation of small intra cell membrane-bound DNA fragments. At AstraZeneca, L5178Y cells are used as these are the cells of choice for follow on regulatory mammalian cell in vitro genotoxicity screening. The test system is simple to perform and produces rapid results. The IVM is suitable as a preliminary genetic toxicity-screening assay prior to compound selection.
A wide range of test chemical concentrations, up to 1 mmol/L or the chemicals solubility limit, is tested. […] Where possible, 20 hours after treatment exposure, at least three concentrations giving acceptable levels of toxicity (greater than 10% survival as measured by two day relative suspension growth) are selected for analysis of micronucleated cells. […] Where possible, a total of at least 1000 cells per culture are scored.
For any concentration, an increase in the number of micronucleated cells is considered to be significant if the increase is at least 2-fold the concurrent solvent control level, and the number of micronucleated cells is greater than 8 per thousand cells scored.
For `Cc1c(F)cc(C(=O)NC2CC2)cc1-c1ccc2c(=O)n(CC(C)(C)CO)cc(CN3CCNC[C@H]3C)c2c1` [Example 26, N-Cyclopropyl-3-fluoro-5-[2-(3-hydroxy-2,2-dimethylpropyl)-4-{[(2R)-2-methylpiperazin-1-yl]methyl}-1-oxo-1,2-dihydroisoquinolin-6-yl]-4-methylbenzamide], the “activity in micronucleus assay (significant = at least 2-fold solvent control and more than 8 micronucleated cells per thousand)” value was “inactive”.

What follows are compounds tested on LPS-induced BAL neutrophilia (assay: LPS Challenge Assay (neutrophil migration into the airway after aerosol LPS challenge)). Conditions: Han Wistar rat; nose-only inhalation; nebuliser concentration of <1 mg/mL; dosed 0.5 hour before the LPS challenge.
Assay type: in vivo, Han Wistar (HW) rat
Method: The following is a description of an assay that may be used to evaluate a compounds activity on neutrophil migration into the airway after aerosol challenge with lipopolysaccharide (LPS) in the Han Wistar (HW) rat.
LPS challenge in HW rats caused an influx of inflammatory cells into the lungs. Rats were challenged either with an aerosol of 0.9% w/v saline or 0.5 mg/mL LPS in 0.9% saline for 30 min. Rats were dosed with vehicle or test compound by nose-only inhalation administration at various time points before challenge depending upon the experimental protocol. Test compound groups could either be the same compound at different doses or single doses of different compounds. […]
The rats were euthanized with 200 mg pentobarbitone sodium at various time points after challenge depending upon the nature of the study, but typically 4 hr after LPS challenge. […] An aliquot of BAL fluid was removed and counted on the Sysmex XT2000Vet automated cell counter (Sysmex UK, Milton Keynes). […] Cells were classified as eosinophils, neutrophils or mononuclear cells (mononuclear cells included monocytes, macrophages and lymphocytes) and were expressed as a percentage of the total cell count.
Compounds were scored as active if a statistically significant (i.e. p<0.05) inhibition of the LPS-induced BAL neutrophilia response was observed.
`Cc1c(F)cc(C(=O)NC2CC2)cc1-c1ccc2c(=O)n(CC(C)(C)CO)cc(CN3CCNC[C@H]3C)c2c1` [Example 26, N-Cyclopropyl-3-fluoro-5-[2-(3-hydroxy-2,2-dimethylpropyl)-4-{[(2R)-2-methylpiperazin-1-yl]methyl}-1-oxo-1,2-dihydroisoquinolin-6-yl]-4-methylbenzamide] was tested, and the “activity in LPS Challenge Assay (active = statistically significant, p<0.05, inhibition of the LPS-induced BAL neutrophilia response)” value was “active”.
